Data on two molecules can be found in paper PMC7006939 (ACS pharmacology & translational science, 2019).

As a reminder, the pKd is the negative decadic logarithm of the Kd, by convention in mol/L.

pKd: −log10 of the molar value. Like-named read-outs stand apart in the source and are kept apart here.

Experiment [1] has as its target T1, pirin (Homo sapiens, UniProt O00625).
T1 sequence (O00625 1-290): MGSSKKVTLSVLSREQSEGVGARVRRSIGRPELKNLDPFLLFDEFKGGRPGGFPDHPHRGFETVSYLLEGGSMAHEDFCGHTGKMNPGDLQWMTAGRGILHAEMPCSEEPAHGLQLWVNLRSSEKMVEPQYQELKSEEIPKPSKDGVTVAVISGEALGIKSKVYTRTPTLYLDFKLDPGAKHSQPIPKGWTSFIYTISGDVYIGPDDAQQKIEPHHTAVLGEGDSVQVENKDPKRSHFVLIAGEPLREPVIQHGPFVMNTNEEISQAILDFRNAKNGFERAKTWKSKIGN
Briefly: ITC. Type of experiment: binding.

Experiment [2] has as its target T1, pirin. Nature of the experiment: ITC. It counts as binding. This is another data set of the same source.

In the case of `O=C(Nc1ccc(Cl)cc1)C1CN(C(=O)c2cc(F)cc(-c3ccncc3)c2)CC(F)(F)C1` (centres unmarked) [CCG-257081], the negative logarithm of the Kd (pKd) in experiment [1] is 5.07.
In experiment [2], `O=C(Nc1ccc(Cl)cc1)C1CN(C(=O)c2cccc(-c3ccco3)c2)CC(F)(F)C1` (racemic) [CCG-222740] showed a pKd of 5.37.
